{
  "source": "paper PMC10269664",
  "about": "“Cinnamaldehyde Targets the LytTR DNA-Binding Domain of the Response Regulator AgrA to Attenuate Biofilm Formation of Listeria monocytogenes” (Microbiology Spectrum, 2023)",
  "key": {"[1]": {"target": "T1, AgrA (Listeria monocytogenes EGD-e) (UniProt Q8YAR4)", "T1 sequence": "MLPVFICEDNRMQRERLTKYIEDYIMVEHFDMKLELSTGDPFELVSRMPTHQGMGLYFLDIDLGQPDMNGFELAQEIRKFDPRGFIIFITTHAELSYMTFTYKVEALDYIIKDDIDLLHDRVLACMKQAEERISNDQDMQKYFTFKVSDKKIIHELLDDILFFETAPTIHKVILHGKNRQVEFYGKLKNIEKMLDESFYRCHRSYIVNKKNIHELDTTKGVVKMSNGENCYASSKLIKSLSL", "assay": "EMSA"}, "[2]": {"target": "T2, AgrA N178A N178A (Listeria monocytogenes EGD-e) (UniProt Q8YAR4)", "T2 sequence": "T1 sequence with N178A", "assay": "EMSA"}, "AgrCFL": {"target": "T3, AgrCFL (Listeria monocytogenes, UniProt Q8YAR5)", "T3 construct": "gene lmo0050", "T3 sequence (Q8YAR5 entry or part of it)": "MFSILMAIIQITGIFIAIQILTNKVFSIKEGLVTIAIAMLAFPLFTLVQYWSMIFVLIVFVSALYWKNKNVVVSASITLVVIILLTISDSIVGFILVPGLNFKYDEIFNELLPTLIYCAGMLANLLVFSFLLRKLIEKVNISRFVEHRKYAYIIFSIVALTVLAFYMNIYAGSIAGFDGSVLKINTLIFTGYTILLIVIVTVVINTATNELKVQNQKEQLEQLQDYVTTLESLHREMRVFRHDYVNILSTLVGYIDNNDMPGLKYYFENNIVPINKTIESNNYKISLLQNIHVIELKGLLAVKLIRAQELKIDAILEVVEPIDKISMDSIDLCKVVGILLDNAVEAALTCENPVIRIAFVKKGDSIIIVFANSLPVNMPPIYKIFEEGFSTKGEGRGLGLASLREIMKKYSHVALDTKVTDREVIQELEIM", "settings": "10 μM ATP; 37 °C"}, "AgrCCyto": {"target": "T4, AgrCCyto (Listeria monocytogenes, UniProt Q8YAR5)", "T4 construct": "gene lmo0050", "T4 sequence (Q8YAR5 entry or part of it)": "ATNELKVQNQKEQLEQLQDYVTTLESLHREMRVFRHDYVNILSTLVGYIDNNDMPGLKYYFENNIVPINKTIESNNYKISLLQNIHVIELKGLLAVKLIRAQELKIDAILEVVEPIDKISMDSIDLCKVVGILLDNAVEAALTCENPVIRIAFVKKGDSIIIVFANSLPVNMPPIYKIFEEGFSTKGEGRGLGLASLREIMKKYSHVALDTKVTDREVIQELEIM", "settings": "10 μM ATP; 37 °C"}, "AgrA [3]": {"target": "T5, AgrA (Listeria monocytogenes, UniProt Q8YAR4)", "T5 construct": "gene lmo0051; entire protein, 242 residues, pET-28a His-tag, E. coli BL21(DE3), fluorescently labelled for MST", "assay": "microscale thermophoresis", "assay_type": "binding", "settings": "read-out: Mean Kd ± SD", "text": "microscale thermophoresis on AgrA"}, "AgrA [4]": {"target": "T6, AgrA (Listeria monocytogenes, UniProt Q8YAR4, K177A)", "T6 construct": "gene lmo0051", "assay": "biochemical"}, "AgrA [5]": {"target": "T7, AgrA (Listeria monocytogenes, UniProt Q8YAR4, D159A)", "T7 construct": "gene lmo0051", "assay": "biochemical"}, "AgrA [6]": {"target": "T8, AgrA (Listeria monocytogenes, UniProt Q8YAR4, G176A)", "T8 construct": "gene lmo0051", "assay": "biochemical"}, "AgrA [7]": {"target": "T9, AgrA (Listeria monocytogenes, UniProt Q8YAR4, N178A)", "T9 construct": "gene lmo0051", "assay": "biochemical"}, "AgrA [8]": {"target": "T10, AgrA (Listeria monocytogenes, UniProt Q8YAR4, D158A)", "T10 construct": "gene lmo0051", "assay": "biochemical"}, "AgrA [9]": {"target": "T11, AgrA (Listeria monocytogenes, UniProt Q8YAR4, R179A)", "T11 construct": "gene lmo0051", "assay": "biochemical"}, "AgrA [10]": {"target": "T12, AgrA (Listeria monocytogenes, UniProt Q8YAR4, H29A)", "T12 construct": "gene lmo0051", "assay": "biochemical"}},
  "note": "Residue numbers refer to the chain shown, from its start.",
  "data": [
    {"molecule": "CTAATTCACCTCCACTAATATTTTACAACGAATTTACCCATAATAACCAAAAATGTAATGAAATGTCCGATTCTTGTCATGAACGACCAAAAAAGAGCAGAATTGCCGATTTTTTGGATACATTTCAGAATATTCGAACGTGTAAAAAGGACTGTATAATAGGCTTAAAAACCCATATTAATATTTTATTTAAGTGAGTTTATTCATAAAAAAAACCAACTGCAAAAGAATGTTCACAGTTGGCTTTTCCATTTTA (double strand) [agr promoter P2]", "values": [
      {"measurement": "binding", "setting": "[1]", "value": "binds"},
      {"measurement": "binding", "setting": "[2]", "value": "binds more weakly"}
    ]},
    {"molecule": "Nc1ncnc2c1ncn2[C@@H]1O[C@H](COP(=O)(O)OP(=O)(O)OP(=O)(O)O)[C@@H](O)[C@H]1O", "note": "[ATP]", "values": [
      {"measurement": "Kinase-Lumi chemiluminescence, residual ATP", "setting": "AgrCFL", "value": "AgrCFL was also subjected to the kinase assay, and similar results were observed"},
      {"measurement": "Kinase-Lumi chemiluminescence, residual ATP", "setting": "AgrCCyto", "value": "After incubation, the remaining ATP was reduced with increasing concentrations of AgrCCyto"}
    ]},
    {"molecule": "O=CC=Cc1ccccc1", "note": "[cinnamaldehyde]", "values": [
      {"measurement": "Kd", "setting": "AgrA [3]", "value": "55.9 ± 2.38", "unit": "µM"},
      {"measurement": "Kd", "setting": "AgrA [4]", "value": "58.3 ± 4.42", "unit": "µM"},
      {"measurement": "Kd", "setting": "AgrA [5]", "value": "59 ± 3.44", "unit": "µM"},
      {"measurement": "Kd", "setting": "AgrA [6]", "value": "53.2 ± 1.52", "unit": "µM"},
      {"measurement": "Kd", "setting": "AgrA [7]", "value": "138 ± 11.4", "unit": "µM"},
      {"measurement": "Kd", "setting": "AgrA [8]", "value": "62 ± 4.8", "unit": "µM"},
      {"measurement": "Kd", "setting": "AgrA [9]", "value": "175 ± 17.8", "unit": "µM"},
      {"measurement": "Kd", "setting": "AgrA [10]", "value": "57.7 ± 6.47", "unit": "µM"}
    ]}
  ]
}
